Data taken from US20090238761A1, “Novel Aryl Piperazine Derivatives With Medical Utility” (Universita Degli Studi Di Siena, priority 2005, published 2009).

SMILES	melting point [°C]
O=C(NCCCCN1CCN(c2ccccc2)CC1)c1cc2ccccc2o1	149 to 150
Cc1cccc(N2CCN(CCCCNC(=O)c3cc4ccccc4o3)CC2)c1C	151 to 152
COc1cccc(N2CCN(CCCCNC(=O)c3cc4ccccc4o3)CC2)c1	104 to 105
Cc1cccc(N2CCN(CCCCNC(=O)c3cc4ccccc4o3)CC2)n1	107 to 109
O=C(NCCCCN1CCN(c2cnc3ccccc3c2)CC1)c1ccccc1	124 to 125
O=C(NCCCCN1CCN(c2cnc3ccccc3c2)CC1)c1cc2ccccc2cn1	153 to 154
O=C(NCCCCN1CCN(c2ccccc2)CC1)c1cccnc1	119 to 120
Cc1cccc(N2CCN(CCCCNC(=O)c3ccccc3)CC2)n1	102 to 103
COc1cccc(N2CCN(CCCCNC(=O)c3ccccc3)CC2)n1	120 to 121
O=C1c2cc3ccccc3n2CCN1CCCCN1CCN(c2cccc(Cl)c2)CC1 [Compound 1-9, 2-[4-[4-(3-Chlorophenyl)piperazin-1-yl]butyl]-3,4-dihydropyrazino[1,2-a]indol-1(2H)-one]	180 to 181
Cc1cccc(N2CCN(CCCCN3CCn4c(cc5ccccc54)C3=O)CC2)c1 [Compound 1-11]	155 to 156
Cc1cccc(N2CCN(CCCCCOc3cc4ccccc4cn3)CC2)c1 [Compound 1-12, 3-[5-(4-m-Tolylpiperazin-1-yl)pentyloxy]isoquinoline]	94 to 95
COc1cccc(N2CCN(CCCCNC(=O)c3ccccc3)CC2)c1 [Compound 1-45, N-(4-(4-(3-Methoxyphenyl)piperazin-1-yl)butyl)benzamide]	111 to 112
Cc1cccc(N2CCN(CCCCNC(=O)c3ccccc3)CC2)c1 [Compound 1-46, N-(4-(4-m-Tolylpiperazin-1-yl)butyl)benzamide]	126 to 127
